The source of these data is US12295936B2, “Immunomodulating urea azalides” (Zoetis Services LLC, priority 2020, dated 2025).

A value given as a limit tells only on which side of the number the result lay.

The subject of the first assay is BRD pathogens, M. haemolytica and P. multocida. As to the kind of experiment: MIC screening panel of BRD pathogens (antibacterial / non-antibacterial). The conditions noted are these: Table J, Formula (1-A1b) compounds.
“1-((2S,3R,4S,6R)-2-(((2R,3S,4R,5R,8R,10R,11R,12S,13S,14R)-2-ethyl-3,4,10-trihydroxy-13-(((2R,4R,5S,6S)-5-hydroxy-4-methoxy-4,6-dimethyl-5-((4-(trifluoromethyl)piperazin-1-yl)methyl)tetrahydro-2H-pyran-2-yl)oxy)-3,5,8,10,12,14-hexamethyl-15-oxo-1-oxa-6-azacyclopentadecan-11-yl)oxy)-3-hydroxy-6-methyltetrahydro-2H-pyran-4-yl)-1,3-dimethyl-3-phenylurea [Example J-14]”: the “MIC ≤64 μg/mL for at least one of the bacterial strains (flag * at Ex #)” value is reported as “J-14* (*MIC ≤64 μg/mL for at least one of the bacterial strains)”.

Still in this assay, the particulars now being: read-out: antibacterial / non-antibacterial (MIC for the BRD pathogens).
For the molecule `CC[C@H]1OC(=O)[C@H](C)[C@@H](O)[C@H](C)[C@@H](O[C@@H]2O[C@H](C)C[C@H](N(C)C(=O)Nc3ccc(F)cc3)[C@H]2O)[C@](C)(O)C[C@@H](C)CN[C@H](C)[C@@H](O)[C@]1(C)O` [Example A-18, 1-((2S,3R,4S,6R)-2-(((2R,3S,4R,5R,8R,10R,11R,12S,13S,14R)-2-ethyl-3,4,10,13-tetrahydroxy-3,5,8,10,12,14-hexamethyl-15-oxo-1-oxa-6-azacyclopentadecan-11-yl)oxy)-3-hydroxy-6-methyltetrahydro-2H-pyran-4-yl)-3-(4-fluorophenyl)-1-methylurea], the MIC was more than 64 µg/mL. As for `CC[C@H]1OC(=O)[C@H](C)[C@@H](O[C@H]2C[C@@](C)(OC)[C@](O)(CNCCC3CC3)[C@H](C)O2)[C@H](C)[C@@H](O[C@@H]2O[C@H](C)C[C@H](N(C)C(=O)N(C)c3ccccc3)[C@H]2O)[C@](C)(O)C[C@@H](C)CN[C@H](C)[C@@H](O)[C@]1(C)O` [Example H-34, 1-((2S,3R,4S,6R)-2-(((2R,3S,4R,5R,8R,10R,11R,12S,13S,14R)-13-(((2R,4R,5S,6S)-5-(((2-cyclopropylethyl)amino)methyl)-5-hydroxy-4-methoxy-4,6-dimethyltetrahydro-2H-pyran-2-yl)oxy)-2-ethyl-3,4,10-trihydroxy-3,5,8,10,12,14-hexamethyl-15-oxo-1-oxa-6-azacyclopentadecan-11-yl)oxy)-3-hydroxy-6-methyltetrahydro-2H-pyran-4-yl)-1,3-dimethyl-3-phenylurea], the MIC is more than 64 µg/mL.

Regarding `CCCNC[C@]1(O)[C@H](C)O[C@@H](O[C@H]2[C@H](C)[C@@H](O[C@@H]3O[C@H](C)C[C@H](N(C)C(=O)N(C)c4cccnc4)[C@H]3O)[C@](C)(O)C[C@@H](C)CN[C@H](C)[C@@H](O)[C@](C)(O)[C@@H](CC)OC(=O)[C@@H]2C)C[C@@]1(C)OC` [Example H-53, 1-((2S,3R,4S,6R)-2-(((2R,3S,4R,5R,8R,10R,11R,12S,13S,14R)-2-ethyl-3,4,10-trihydroxy-13-(((2R,4R,5S,6S)-5-hydroxy-4-methoxy-4,6-dimethyl-5-((propylamino)methyl)tetrahydro-2H-pyran-2-yl)oxy)-3,5,8,10,12,14-hexamethyl-15-oxo-1-oxa-6-azacyclopentadecan-11-yl)oxy)-3-hydroxy-6-methyltetrahydro-2H-pyran-4-yl)-1,3-dimethyl-3-(pyridin-3-yl)urea], the MIC is more than 64 µg/mL.

For the molecule `CCCNC(=O)N(C)[C@H]1C[C@@H](C)O[C@@H](O[C@@H]2[C@@H](C)[C@H](O[C@H]3C[C@@](C)(OC)[C@](O)(CNC4CCC4)[C@H](C)O3)[C@@H](C)C(=O)O[C@H](CC)[C@@](C)(O)[C@H](O)[C@@H](C)NC[C@H](C)C[C@@]2(C)O)[C@@H]1O` [Example H-94, 1-((2S,3R,4S,6R)-2-(((2R,3S,4R,5R,8R,10R,11R,12S,13S,14R)-13-(((2R,4R,5S,6S)-5-((cyclobutylamino)methyl)-5-hydroxy-4-methoxy-4,6-dimethyltetrahydro-2H-pyran-2-yl)oxy)-2-ethyl-3,4,10-trihydroxy-3,5,8,10,12,14-hexamethyl-15-oxo-1-oxa-6-azacyclopentadecan-11-yl)oxy)-3-hydroxy-6-methyltetrahydro-2H-pyran-4-yl)-1-methyl-3-propylurea], the MIC is more than 64 µg/mL. The same measure, in the same setting: with `CC[C@H]1OC(=O)[C@H](C)[C@@H](O[C@H]2C[C@@](C)(OC)[C@](O)(CNC)[C@H](C)O2)[C@H](C)[C@@H](O[C@@H]2O[C@H](C)C[C@H](N(C)C(=O)N3CCN(CC)CC3)[C@H]2O)[C@](C)(O)C[C@@H](C)CN[C@H](C)[C@@H](O)[C@]1(C)O` [Example I-1, 4-ethyl-N-((2S,3R,4S,6R)-2-(((2R,3S,4R,5R,8R,10R,11R,12S,13S,14R)-2-ethyl-3,4,10-trihydroxy-13-(((2R,4R,5S,6S)-5-hydroxy-4-methoxy-4,6-dimethyl-5-((methylamino)methyl)tetrahydro-2H-pyran-2-yl)oxy)-3,5,8,10,12,14-hexamethyl-15-oxo-1-oxa-6-azacyclopentadecan-11-yl)oxy)-3-hydroxy-6-methyltetrahydro-2H-pyran-4-yl)-N-methylpiperazine-1-carboxamide] the figure was more than 64 µg/mL. Consider `CCCNC(=O)N(C)[C@H]1C[C@@H](C)O[C@@H](O[C@@H]2[C@@H](C)[C@H](O[C@H]3C[C@@](C)(OC)[C@](O)(CNC4CC4)[C@H](C)O3)[C@@H](C)C(=O)O[C@H](CC)[C@@](C)(O)[C@H](O)[C@@H](C)NC[C@H](C)C[C@@]2(C)O)[C@@H]1O` [Example H-93, 1-((2S,3R,4S,6R)-2-(((2R,3S,4R,5R,8R,10R,11R,12S,13S,14R)-13-(((2R,4R,5S,6S)-5-((cyclopropylamino)methyl)-5-hydroxy-4-methoxy-4,6-dimethyltetrahydro-2H-pyran-2-yl)oxy)-2-ethyl-3,4,10-trihydroxy-3,5,8,10,12,14-hexamethyl-15-oxo-1-oxa-6-azacyclopentadecan-11-yl)oxy)-3-hydroxy-6-methyltetrahydro-2H-pyran-4-yl)-1-methyl-3-propylurea], for which the MIC is more than 64 µg/mL.

As for `CCCNC[C@]1(O)[C@H](C)O[C@@H](O[C@H]2[C@H](C)[C@@H](O[C@@H]3O[C@H](C)C[C@H](N(C)C(=O)Nc4cccc(F)c4)[C@H]3O)[C@](C)(O)C[C@@H](C)CN[C@H](C)[C@@H](O)[C@](C)(O)[C@@H](CC)OC(=O)[C@@H]2C)C[C@@]1(C)OC` [Example H-85, 1-((2S,3R,4S,6R)-2-(((2R,3S,4R,5R,8R,10R,11R,12S,13S,14R)-2-ethyl-3,4,10-trihydroxy-13-(((2R,4R,5S,6S)-5-hydroxy-4-methoxy-4,6-dimethyl-5-((propylamino)methyl)tetrahydro-2H-pyran-2-yl)oxy)-3,5,8,10,12,14-hexamethyl-15-oxo-1-oxa-6-azacyclopentadecan-11-yl)oxy)-3-hydroxy-6-methyltetrahydro-2H-pyran-4-yl)-3-(3-fluorophenyl)-1-methylurea], the MIC is more than 64 µg/mL. On the same count and under the same terms, with `CCCN(C[C@]1(O)[C@H](C)O[C@@H](O[C@H]2[C@H](C)[C@@H](O[C@@H]3O[C@H](C)C[C@H](N(C)C(=O)Nc4ccc(C(F)(F)F)cc4)[C@H]3O)[C@](C)(O)C[C@@H](C)CN[C@H](C)[C@@H](O)[C@](C)(O)[C@@H](CC)OC(=O)[C@@H]2C)C[C@@]1(C)OC)C(=O)Nc1ccc(C(F)(F)F)cc1` [Example H-12, 1-((2S,3R,4S,6R)-2-(((2R,3S,4R,5R,8R,10R,11R,12S,13S,14R)-2-ethyl-3,4,10-trihydroxy-13-(((2R,4R,5S,6S)-5-hydroxy-4-methoxy-4,6-dimethyl-5-((1-propyl-3-(4-(trifluoromethyl)phenyl)ureido)methyl)tetrahydro-2H-pyran-2-yl)oxy)-3,5,8,10,12,14-hexamethyl-15-oxo-1-oxa-6-azacyclopentadecan-11-yl)oxy)-3-hydroxy-6-methyltetrahydro-2H-pyran-4-yl)-1-methyl-3-(4-(trifluoromethyl)phenyl)urea] the figure was more than 64 µg/mL.
